From PubChem BioAssay (NCI)
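Five concentrations, 48 hours, 96-well plates. GI50 is the concentration that inhibits growth by half. TGI: concentration producing complete growth inhibition.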

Key:
Test in all cases: NCI anticancer screen, dose series, 48 h
[1] = system: HS 578T breast
[2] = system: M14 melanoma
[3] = system: RPMI-8226 leukemia
[4] = system: K-562 leukemia
[5] = system: OVCAR-3 ovarian
[6] = system: HCT-116 colon
[7] = system: MOLT-4 leukemia
[8] = system: UACC-62 melanoma
[9] = system: EKVX NSCLC
[10] = system: UO-31 renal
[11] = system: CAKI-1 renal
[12] = system: SK-MEL-2 melanoma
[13] = system: SK-MEL-5 melanoma
[14] = system: DU-145 prostate
[15] = system: SN12C renal
[16] = system: A549 NSCLC
[17] = system: A498 renal
[18] = system: HCC-2998 colon
[19] = system: HL-60(TB) leukemia
[20] = system: SW-620 colon
[21] = system: IGROV1 ovarian
[22] = system: HOP-92 NSCLC
[23] = system: MCF7 breast
[24] = system: TK-10 renal
[25] = system: UACC-257 melanoma
[26] = system: KM12 colon
[27] = system: NCI-H460 lung
[28] = system: RXF 393 renal
[29] = system: BT-549 breast
[30] = system: CCRF-CEM leukemia
[31] = system: MDA-MB-231 breast
[32] = system: NCI-H522 lung
[33] = system: COLO 205 colon
[34] = system: T-47D breast
[35] = system: 786-0 renal
[36] = system: NCI/ADR-RES ovarian
[37] = system: ACHN renal
[38] = system: LOX IMVI melanoma
[39] = system: SF-539 CNS
[40] = system: MDA-MB-435
[41] = system: MALME-3M melanoma
[42] = system: PC-3 prostate
[43] = system: SR leukemia
[44] = system: SF-268 CNS
[45] = system: SF-295 CNS
[46] = system: HCT-15 colon
[47] = system: NCI-H23 lung
[48] = system: OVCAR-8 ovarian
[49] = system: SNB-19 CNS
[50] = system: HOP-62 NSCLC
[51] = system: HT29 colon
[52] = system: OVCAR-4 ovarian
[53] = system: NCI-H226 lung
[54] = system: U251 CNS
[55] = system: SK-MEL-28 melanoma
[56] = system: SNB-75 CNS
[57] = system: SK-OV-3 ovarian
[58] = system: OVCAR-5 ovarian

Compound `Cc1ccc(C(=O)NC2CCCCC2)cc1-c1ccc(C(=O)NCC2CC2)cc1` has a GI50 [1] of over 20.2 µM, a TGI [1] of over 25 µM and a GI50 [2] of over 25 µM. It also gave a TGI [2] of over 25 µM, a GI50 [3] of over 25 µM and a TGI [3] of over 25 µM. For the same compound, the GI50 [4] was 19.4 µM, the TGI [4] was over 25 µM and the GI50 [5] was over 23 µM. The TGI [5] was over 25 µM, the GI50 [6] was 20.9 µM and the TGI [6] was over 25 µM. It also gave a GI50 [7] of over 25 µM, a TGI [7] of over 25 µM and a GI50 [8] of 17 µM. It also gave a TGI [8] of over 25 µM, a GI50 [9] of over 19.4 µM and a TGI [9] of over 25 µM. The GI50 [10] was over 19.9 µM, the TGI [10] was over 25 µM and the GI50 [11] was 24.9 µM. For the same compound, the TGI [11] was over 25 µM, the GI50 [12] was over 25 µM and the TGI [12] was over 25 µM. The GI50 [13] was 19.9 µM, the TGI [13] was over 25 µM and the GI50 [14] was over 25 µM. The TGI [14] was over 25 µM, the GI50 [15] was over 25 µM and the TGI [15] was over 25 µM. The GI50 [16] was 12.4 µM, the TGI [16] was over 25 µM and the GI50 [17] was 8.51 µM. For the same compound, the TGI [17] was over 25 µM, the GI50 [18] was over 25 µM and the TGI [18] was over 25 µM. For the same compound, the GI50 [19] was over 25 µM, the TGI [19] was over 25 µM and the GI50 [20] was over 25 µM. For the same compound, the TGI [20] was over 25 µM, the GI50 [21] was over 25 µM and the TGI [21] was over 25 µM. The GI50 [22] was 6.02 µM, the TGI [22] was over 25 µM and the GI50 [23] was over 23.9 µM. For the same compound, the TGI [23] was over 25 µM, the GI50 [24] was over 25 µM and the TGI [24] was over 25 µM. The GI50 [25] was over 25 µM, the TGI [25] was over 25 µM and the GI50 [26] was over 22.5 µM. The TGI [26] was over 25 µM, the GI50 [27] was 16.8 µM and the TGI [27] was over 25 µM. For the same compound, the GI50 [28] was over 25 µM, the TGI [28] was over 25 µM and the GI50 [29] was over 22.6 µM. It also gave a TGI [29] of over 25 µM, a GI50 [30] of over 25 µM and a TGI [30] of over 25 µM. For the same compound, the GI50 [31] was over 25 µM, the TGI [31] was over 25 µM and the GI50 [32] was 13.5 µM. For the same compound, the TGI [32] was over 25 µM, the GI50 [33] was over 25 µM and the TGI [33] was over 25 µM. It also gave a GI50 [34] of 9.51 µM, a TGI [34] of over 25 µM and a GI50 [35] of over 25 µM. It also gave a TGI [35] of over 25 µM, a GI50 [36] of 24.6 µM and a TGI [36] of over 25 µM. The GI50 [37] was over 25 µM, the TGI [37] was over 25 µM and the GI50 [38] was over 25 µM. It also gave a TGI [38] of over 25 µM, a GI50 [39] of over 25 µM and a TGI [39] of over 25 µM. For the same compound, the GI50 [40] was over 25 µM, the TGI [40] was over 25 µM and the GI50 [41] was over 25 µM. For the same compound, the TGI [41] was over 25 µM, the GI50 [42] was over 22.8 µM and the TGI [42] was over 25 µM. For the same compound, the GI50 [43] was over 25 µM, the TGI [43] was over 25 µM and the GI50 [44] was over 25 µM. The TGI [44] was over 25 µM, the GI50 [45] was 10.8 µM and the TGI [45] was over 25 µM. It also gave a GI50 [46] of over 25 µM, a TGI [46] of over 25 µM and a GI50 [47] of over 25 µM. For the same compound, the TGI [47] was over 25 µM, the GI50 [48] was over 25 µM and the TGI [48] was over 25 µM. The GI50 [49] was over 25 µM, the TGI [49] was over 25 µM and the GI50 [50] was over 25 µM. It also gave a TGI [50] of over 25 µM, a GI50 [51] of over 25 µM and a TGI [51] of over 25 µM. For the same compound, the GI50 [52] was over 25 µM, the TGI [52] was over 25 µM and the GI50 [53] was over 25 µM. For the same compound, the TGI [53] was over 25 µM, the GI50 [54] was over 25 µM and the TGI [54] was over 25 µM. The GI50 [55] was over 25 µM, the TGI [55] was over 25 µM and the GI50 [56] was over 25 µM. The TGI [56] was over 25 µM, the GI50 [57] was over 25 µM and the TGI [57] was over 25 µM. The GI50 [58] was over 25 µM and the TGI [58] was over 25 µM.
`COC(=O)N/N=C(\C)C(CN1CCOCC1)C(c1ccccc1)c1cc2ccccc2oc1=O` (centres undefined) gave a TGI [1] of over 100 µM, a TGI [2] of over 100 µM and a TGI [3] of 53.4 µM. The TGI [4] was over 100 µM, the TGI [5] was over 100 µM and the TGI [6] was over 100 µM. For the same compound, the TGI [7] was over 100 µM, the TGI [8] was over 100 µM and the TGI [9] was over 100 µM. The TGI [10] was over 100 µM, the TGI [11] was over 100 µM and the TGI [12] was over 100 µM. It also gave a TGI [13] of over 100 µM, a TGI [14] of over 100 µM and a TGI [15] of over 100 µM. It also gave a TGI [16] of over 100 µM, a TGI [17] of over 100 µM and a TGI [18] of over 100 µM. It also gave a TGI [19] of 85.3 µM, a TGI [20] of over 100 µM and a TGI [21] of over 100 µM. It also gave a TGI [22] of over 100 µM, a TGI [23] of over 100 µM and a TGI [24] of over 100 µM. For the same compound, the TGI [25] was over 100 µM, the TGI [26] was over 100 µM and the TGI [27] was over 100 µM. The TGI [28] was over 100 µM, the TGI [29] was over 100 µM and the TGI [30] was over 100 µM. For the same compound, the TGI [31] was over 100 µM, the TGI [32] was over 100 µM and the TGI [33] was over 100 µM. For the same compound, the TGI [34] was over 100 µM, the TGI [35] was over 100 µM and the TGI [36] was over 100 µM. It also gave a TGI [37] of over 100 µM, a TGI [38] of over 100 µM and a TGI [39] of over 100 µM. The TGI [40] was over 100 µM, the TGI [41] was over 100 µM and the TGI [42] was over 100 µM. It also gave a TGI [43] of 56.5 µM, a TGI [44] of over 100 µM and a TGI [45] of over 100 µM. The TGI [46] was over 100 µM, the TGI [47] was over 100 µM and the TGI [48] was over 100 µM. The TGI [49] was over 100 µM, the TGI [50] was over 100 µM and the TGI [51] was over 100 µM. For the same compound, the TGI [52] was over 100 µM, the TGI [53] was over 100 µM and the TGI [54] was over 100 µM. For the same compound, the TGI [55] was over 100 µM, the TGI [56] was over 100 µM and the TGI [57] was over 100 µM. The TGI [58] was over 100 µM.
